{"source": "patent US6916773B2", "about": "“Non-surfactant solubilizing agent” (Ecolab, Inc., priority 2002, dated 2005)", "type_in_all_cases": "physicochemical", "details_in_all_cases": "room temperature", "key": {"[1]": {"experiment": "Sodium benzoate added to aqueous solvent solution until single phase observed (PPh)", "experimental": "(§1) Aqueous solutions of dipropylene glycol n-butyl ether(DPnB), propylene glycol phenyl ether(PPh), and benzyl alcohol were prepared and sodium benzoate was added at room temperature to each solution until a single phase solution was observed."}, "[2]": {"experiment": "Sodium benzoate added to aqueous solvent solution until single phase observed (DPnB)", "experimental": "as §1"}, "[3]": {"experiment": "Sodium benzoate added to aqueous solvent solution until single phase observed (benzyl alcohol)", "experimental": "as §1"}}}
{"smiles": "O=C([O-])c1ccccc1.[Na+]", "note": "[Na Benzoate, sodium benzoate]", "values": [{"measurement": "Na Benzoate at which a single phase solution was observed", "setting": "[1]; Water 43 wt %, PPh 43 wt %", "value": 14, "unit": "wt %"}, {"measurement": "Na Benzoate at which a single phase solution was observed", "setting": "[1]; Water 58 wt %, PPh 25 wt %", "value": 17, "unit": "wt %"}, {"measurement": "Na Benzoate at which a single phase solution was observed", "setting": "[1]; Water 63 wt %, PPh 16 wt %", "value": 21, "unit": "wt %"}, {"measurement": "Na Benzoate at which a single phase solution was observed", "setting": "[1]; Water 69 wt %, PPh 12 wt %", "value": 19, "unit": "wt %"}, {"measurement": "Na Benzoate at which a single phase solution was observed", "setting": "[1]; Water 74 wt %, PPh 8 wt %", "value": 18, "unit": "wt %"}, {"measurement": "Na Benzoate at which a single phase solution was observed", "setting": "[1]; Water 79 wt %, PPh 4 wt %", "value": 17, "unit": "wt %"}, {"measurement": "Na Benzoate at which a single phase solution was observed", "setting": "[1]; Water 83 wt %, PPh 2 wt %", "value": 15, "unit": "wt %"}, {"measurement": "Na Benzoate at which a single phase solution was observed", "setting": "[1]; Water 93 wt %, PPh 1 wt %", "value": 6, "unit": "wt %"}, {"measurement": "Na Benzoate at which a single phase solution was observed", "setting": "[2]; Water 45 wt %, DPnB 45 wt %", "value": 10, "unit": "wt %"}, {"measurement": "Na Benzoate at which a single phase solution was observed", "setting": "[2]; Water 62 wt %, DPnB 26 wt %", "value": 12, "unit": "wt %"}, {"measurement": "Na Benzoate at which a single phase solution was observed", "setting": "[2]; Water 70 wt %, DPnB 18 wt %", "value": 12, "unit": "wt %"}, {"measurement": "Na Benzoate at which a single phase solution was observed", "setting": "[2]; Water 75 wt %, DPnB 13 wt %", "value": 12, "unit": "wt %"}, {"measurement": "Na Benzoate at which a single phase solution was observed", "setting": "[2]; Water 79 wt %, DPnB 9 wt %", "value": 12, "unit": "wt %"}, {"measurement": "Na Benzoate at which a single phase solution was observed", "setting": "[2]; Water 86 wt %, DPnB 4 wt %", "value": 10, "unit": "wt %"}, {"measurement": "Na Benzoate at which a single phase solution was observed", "setting": "[2]; Water 98 wt %, DPnB 2 wt %", "value": 0, "unit": "wt %"}, {"measurement": "Na Benzoate at which a single phase solution was observed", "setting": "[2]; Water 99 wt %, DPnB 1 wt %", "value": 0, "unit": "wt %"}, {"measurement": "Na Benzoate at which a single phase solution was observed", "setting": "[3]; Water 44 wt %, Benzyl Alcohol 44 wt %", "value": 12, "unit": "wt %"}, {"measurement": "Na Benzoate at which a single phase solution was observed", "setting": "[3]; Water 61 wt %, Benzyl Alcohol 26 wt %", "value": 13, "unit": "wt %"}, {"measurement": "Na Benzoate at which a single phase solution was observed", "setting": "[3]; Water 69 wt %, Benzyl Alcohol 17 wt %", "value": 14, "unit": "wt %"}, {"measurement": "Na Benzoate at which a single phase solution was observed", "setting": "[3]; Water 74 wt %, Benzyl Alcohol 13 wt %", "value": 13, "unit": "wt %"}, {"measurement": "Na Benzoate at which a single phase solution was observed", "setting": "[3]; Water 78 wt %, Benzyl Alcohol 9 wt %", "value": 13, "unit": "wt %"}, {"measurement": "Na Benzoate at which a single phase solution was observed", "setting": "[3]; Water 85 wt %, Benzyl Alcohol 4 wt %", "value": 11, "unit": "wt %"}, {"measurement": "Na Benzoate at which a single phase solution was observed", "setting": "[3]; Water 98 wt %, Benzyl Alcohol 2 wt %", "value": 0, "unit": "wt %"}, {"measurement": "Na Benzoate at which a single phase solution was observed", "setting": "[3]; Water 99 wt %, Benzyl Alcohol 1 wt %", "value": 0, "unit": "wt %"}]}
